From patent EP4563577A1, “NOVEL SALT OF IMIDAZO[1,2-A]PYRIDINE COMPOUND, CRYSTALLINE FORM THEREOF, AND PREPARATION METHOD” (Jeil Pharmaceutical Co., Ltd., priority 2022, dated 2024) come the findings set out here.

Broadly, the AUC(0-inf) is total exposure, with the tail of the curve extrapolated. The low end stands for low exposure, the high end for high exposure. A word on the AUC(0-t): it is exposure summed from dosing to a finite time, without extrapolation to infinity. A higher AUC(0-t) goes with more exposure. Usually Cmax stands for the maximum level reached in the sampled fluid or tissue. As a reminder, the Tmax is the time at which the peak concentration occurs.

The nature of data set [1]: Photostability evaluation (discoloration observed with naked eyes). The data set is classed as physicochemical. On the procedure: It is determined to be suitable only when the white to yellowish off-white powder form is maintained as a solid property.
Data set [2] is described as follows: Bioavailability evaluation (pharmacokinetics after oral capsule administration). The class given is in vivo. Particulars: fasted male beagle dogs, oral capsules, 10 mg/kg; for AUC(0-inf) / AUC(0-t) / Cmax / Tmax: dog, plasma. As to the method: Bioavailability was evaluated with regard to azetidin-1-yl{8-[(2,6-dimethylbenzyl)amino]-2,3-dimethylimidazo[1,2-a]pyridin-6-yl}methanone citrate according to Example 4(1) of the present invention and azetidin-1-yl{8-[(2,6-dimethylbenzyl)amino]-2,3-dimethylimidazo[1,2-a]pyridin-6-yl}methanone obtained according to Preparation Example 1 as an comparative example. Specific pharmacokinetic experiments and evaluation methods are as follows.
Fasted male beagle dogs were orally administered with capsules at a dose of 10 mg/kg, and bled at 0.08, 0.25, 0.5, 1, 3, 5, 8, and 24 hours after administration. Blood collected in an amount of 3 ml each from the jugular vein was centrifuged to separate plasma, and stored frozen in a cryogenic freezer before analysis.
Plasma pretreatment was performed by a protein precipitation method. 300 ul of acetonitrile containing an internal standard (200 ng/ml of carbamazepine) was added to 100 ul of a plasma sample and mixed. After sufficiently mixing, the resulting mixture was centrifuged at 12,000 rpm for 10 minutes, after which the supernatant was transferred to an assay vial and injected into a LC-MS/MS to analyze a blood concentration of the compound.
Parameters of time to maximum plasma concentration (Tmax), maximum plasma concentration (Cmax), and area under the plasma-concentration time curve (AUC0-t, AUC0-inf) were obtained using PK Solution.

Data set [3] is described as follows: Short-term storage stability (heat/moisture), purity by HPLC. The data set is classed as physicochemical. As to the method: Purity of azetidin-1-yl{8-[(2,6-dimethylbenzyl)amino]-2,3-dimethylimidazo[1,2-a]pyridin-6-yl}methanone citrate according to Example 4(1) of the present invention was measured, and then the purity was measured after being left at 60°C for four days. Purity measurements were performed by HPLC. In addition, with regard to azetidin-1-yl{8-[(2,6-dimethylbenzyl)amino]-2,3-dimethylimidazo[1,2-a]pyridin-6-yl}methanone citrate according to Example 4(1) of the present invention, the purity was measured after being left for two days under the condition of 75 to 90% humidity (RH).

The nature of data set [4]: Thermal and moisture stability under accelerated conditions (40±2°C, 75±5% RH). Particulars: for Moisture: criteria 1.0% or less; for Purity: criteria 99.0% or more; for Property: criteria: White to yellowish off-white powder. The data set is classed as physicochemical. On the procedure: (§1) An X-ray powder diffraction pattern was obtained through a solid phase detector over a range of 2° to 40° of a diffraction angle (2θ) with a 0.02° step size by using D8 Focus (Bruker ASX). The moisture content of the obtained sample was measured with an 870KF Titrino Plus (Metrohm) Karl-Fischer moisture meter. Immediately after preparing azetidin-1-yl{8-[(2,6-dimethylbenzyl)amino]-2,3-dimethylimidazo[1,2-a]pyridin-6-yl}methanone citrate according to Example 4(1) of the present invention, properties were confirmed with naked eyes, and the moisture content, purity, and XRD were measured, respectively. Subsequently, the same was primarily sealed in a polyethylene bag and then secondarily sealed in an aluminum bag, and then the properties were confirmed with naked eyes and the moisture content, purity, and XRD were also measured at one and six months after being stored under an accelerated condition of 40±2°C and 75±5% RH.

A short description of data set [5]: Long-term storage stability (25±2°C, 60±5% RH). Particulars: for Moisture: criteria 1.0% or less; for Purity: criteria 99.0% or more; for Property: criteria: White to yellowish off-white powder. The class given is physicochemical. As to the method:
as §1, with “at 12, 24” for “at one”, “and 36” for “and six”, “under the” for “under an accelerated”, “of 25±2°C” for “of 40±2°C”, “and 60±5%” for “and 75±5%”

The mark [6] stands for this setting: Immediately after preparation (Initial value).

As to `Cc1cccc(C)c1CNc1cc(C(=O)N2CCC2)cn2c(C)c(C)nc12.O=C(O)CC(O)(CC(=O)O)C(=O)O` [Citrate of Compound I, azetidin-1-yl{8-[(2,6-dimethylbenzyl)amino]-2,3-dimethylimidazo[1,2-a]pyridin-6-yl}methanone citrate], the color entry in data set [1] (Initial value) is listed as “White”; in data set [1] (UV 200 watt (35 W), 25°C, humidity 60%), “Off-white”; in data set [1] (Visible 1200k lux (35k lux), 25°C, humidity 60%), “Slightly off-white”. Besides, the total exposure AUC(0-inf) in data set [2] worked out at 15200 ng·h/mL. Besides, the AUC(0-t) in data set [2] stood at 15000 ng·h/mL. This molecule also yielded a Cmax in data set [2] of 3030 ng/mL. Moreover, the Tmax in data set [2] was determined as 1 h. In addition, the “AUC improvement relative to Comparative Example (compound I free base)” value in data set [2] is on record as “five times or more”. Further, the “Cmax increase relative to Comparative Example (compound I free base)” value in data set [2] is at least 11 times. Further, the “Purity (%)” value in data set [3] (Humidity 75~90 %, Day 2) is 99.976%; in data set [3] (Initial value), 99.955%; in data set [3] (Temperature 60°C, Day 4), 99.974%. In addition, the “XRD (Comparison with initial value)” value is recorded as “Same” in data set [4] (1 month, 40±2°C, 75±5% RH); “Same” in data set [4] (6 months, 40±2°C, 75±5% RH); “Same” in data set [4] (setting [6]); “Same” in data set [5] (12 months, 25±2°C, 60±5% RH); “Same” in data set [5] (24 months, 25±2°C, 60±5% RH); “Same” in data set [5] (36 months, 25±2°C, 60±5% RH). For the same molecule, the “XRD (Comparison with initial value)” value in data set [5] (setting [6]) is recorded as “Same”. The Moisture in data set [4] (1 month, 40±2°C, 75±5% RH) came out at 0.75%; in data set [4] (6 months, 40±2°C, 75±5% RH), 0.15%; in data set [4] (setting [6]) it was 0.74%; in data set [5] (12 months, 25±2°C, 60±5% RH), 0.52%; in data set [5] (24 months, 25±2°C, 60±5% RH), 0.45%; in data set [5] (36 months, 25±2°C, 60±5% RH), 0.60%. The same molecule displayed a Moisture in data set [5] (setting [6]) of 0.74%. The Purity came to 99.97% in data set [4] (1 month, 40±2°C, 75±5% RH); 99.96% in data set [4] (6 months, 40±2°C, 75±5% RH); 99.96% in data set [4] (setting [6]); 99.96% in data set [5] (12 months, 25±2°C, 60±5% RH); 99.97% in data set [5] (24 months, 25±2°C, 60±5% RH); 99.96% in data set [5] (36 months, 25±2°C, 60±5% RH). The molecule further gave a Purity in data set [5] (setting [6]) of 99.96%. In addition, the Property entry in data set [4] (1 month, 40±2°C, 75±5% RH) is on record as “Suitable”; in data set [4] (6 months, 40±2°C, 75±5% RH) it was “Suitable”; in data set [4] (setting [6]), “Suitable”; in data set [5] (12 months, 25±2°C, 60±5% RH), “Suitable”; in data set [5] (24 months, 25±2°C, 60±5% RH), “Suitable”; in data set [5] (36 months, 25±2°C, 60±5% RH), “Suitable”. In addition, the Property result in data set [5] (setting [6]) is listed as “Suitable”.
In the case of `Cc1cccc(C)c1CNc1cc(C(=O)N2CCC2)cn2c(C)c(C)nc12` [Compound I (free base), Azetidin-1-yl{8-[(2,6-dimethylbenzyl)amino]-2,3-dimethylimidazo[1,2-a]pyridin-6-yl}methanone], in data set [2], the area under the curve AUC(0-inf) worked out at 2820 ng·h/mL, the AUC(0-t) was found to be 2630 ng·h/mL, the Cmax is 262 ng/mL and the Tmax is 5 h.
